Laboratory results reported in article PMC11163866 (Journal of medicinal chemistry, 2024).

Columns and labels:
[1] = In vitro metabolic stability in human liver microsomes; format: in vitro ADME; conditions: 1 μM; 0.5 mg/mL microsomes; up to 60 min
[2] = In vitro metabolic stability in mouse liver microsomes; format: in vitro ADME; conditions: 1 μM; 0.5 mg/mL microsomes; up to 60 min

Row | metabolic stability (t1/2, min) vs HLM [1] | metabolic stability (t1/2, min) vs MLM [2] | Compound
1 | > 60.0 min | > 60.0 min | Cc1ccc(Oc2ccc(N/C=C3\N=C(c4ccc[nH]4)C4=C3CCCC4)cc2)cc1.Cl [compound 109, (Z)-N-((3-(1H-Pyrrol-2-yl)-4,5,6,7-tetrahydro-1H-isoindol-1-ylidene)methyl)-4-(p-tolyloxy)aniline Hydrochloride]
2 | > 60.0 min | 15.8 min | COC1=CC(c2ccc[nH]2)=N/C1=C\Nc1cccc(OC(F)(F)F)c1.Cl [compound 58, (Z)-N-((4'-Methoxy-1H,5'H-[2,2'-bipyrrol]-5'-ylidene)methyl)-3-(trifluoromethoxy)aniline Hydrochloride]
3 | > 60.0 min | > 60.0 min | CC1=C(C)/C(=C/NC2CCCCCC2)N=C1c1ccc(CC(C)C)[nH]1.Cl [compound 111, (Z)-N-((5-Isobutyl-3',4'-dimethyl-1H,5'H-[2,2'-bipyrrol]-5'-ylidene)methyl)cycloheptanamine Hydrochloride]
4 | 11.7 min | 10.4 min | COC1=CC(c2ccc(Cc3ccc(OC)cc3)[nH]2)=N/C1=C\NC1CCCC1.Cl [compound 119, (Z)-N-((4'-Methoxy-5-(4-methoxybenzyl)-1H,5'H-[2,2'-bipyrrol]-5'-ylidene)methyl)cyclopentanamine Hydrochloride]
5 | > 60 min | > 60 min | Cl.Clc1ccc(OC2=CC(c3ccc[nH]3)=N/C2=C\NC23CC4CC(CC(C4)C2)C3)cc1 [compound 77, (3s,5s,7s)-N-((Z)-(4'-(4-Chlorophenoxy)-1H,5'H-[2,2'-bipyrrol]-5'-ylidene)methyl)adamantan-1-amine Hydrochloride]
6 | 42.1 min | 31.2 min | Cc1ccc(N/C=C2\N=C(c3ccc[nH]3)C3=C2CCCC3)cc1.Cl [compound 105, (Z)-N-((3-(1H-Pyrrol-2-yl)-4,5,6,7-tetrahydro-1H-isoindol-1-ylidene)methyl)-4-methylaniline Hydrochloride]
7 | > 60.0 min | > 60.0 min | Cl.Fc1cc(F)cc(OC2=CC(c3ccc[nH]3)=N/C2=C\NC23CC4CC(CC(C4)C2)C3)c1 [compound 74, (3s,5s,7s)-N-((Z)-(4'-(3,5-Difluorophenoxy)-1H,5'H-[2,2'-bipyrrol]-5'-ylidene)methyl)adamantan-1-amine Hydrochloride]
8 | 19.7 min | 13.8 min | COC1=CC(c2ccc(Cc3ccc(OC)cc3)[nH]2)=N/C1=C\NC1CCCCC1.Cl [compound 120, (Z)-N-((4'-Methoxy-5-(4-methoxybenzyl)-1H,5'H-[2,2'-bipyrrol]-5'-ylidene)methyl)cyclohexanamine Hydrochloride]
9 | > 60.0 min | 9.71 min | C(/NC1CCCCCC1)=C1/N=C(c2ccc[nH]2)C2=C1CCCC2.Cl [compound 102]
10 | 56.2 min | 46.7 min | COC1=CC(c2ccc[nH]2)=N/C1=C\Nc1ccc(Cl)c(Cl)c1.Cl [compound 60, (Z)-3,4-Dichloro-N-((4'-methoxy-1H,5'H-[2,2'-bipyrrol]-5'-ylidene)methyl)aniline Hydrochloride]
11 | 13.0 min | 15.4 min | COC1=CC(c2ccc[nH]2)=N/C1=C\N[C@H]1CC[C@H](C(F)(F)F)CC1.Cl [compound 48, (1r,4r)-N-((Z)-(4'-Methoxy-1H,5'H-[2,2'-bipyrrol]-5'-ylidene)methyl)-4-(trifluoromethyl)cyclohexan-1-amine Hydrochloride]
12 | – | 28.9 min | COC1=CC(c2ccc[nH]2)=N/C1=C\Nc1ccc(C)cc1.Cl [compound 52, (Z)-N-((4'-Methoxy-1H,5'H-[2,2'-bipyrrol]-5'-ylidene)methyl)-4-methylaniline Hydrochloride]
13 | 25.6 min | 14.8 min | COC1=CC(c2ccc(Cc3ccc(OC)cc3)[nH]2)=N/C1=C\NC1CCCCCC1.Cl [compound 121, (Z)-N-((4'-Methoxy-5-(4-methoxybenzyl)-1H,5'H-[2,2'-bipyrrol]-5'-ylidene)methyl)cycloheptanamine Hydrochloride]
14 | > 60.0 min | 15.8 min | COC1=CC(c2ccc[nH]2)=N/C1=C\Nc1ccc2c(c1)OCCO2.Cl [compound 63, (Z)-N-((4'-Methoxy-1H,5'H-[2,2'-bipyrrol]-5'-ylidene)methyl)-2,3-dihydrobenzo[b][1,4]dioxin-6-amine Hydrochloride]
15 | > 60.0 min | 45.1 min | COC1=CC(c2ccc[nH]2)=N/C1=C\Nc1ccc(OC(F)(F)F)cc1.Cl [compound 54, (Z)-N-((4'-Methoxy-1H,5'H-[2,2'-bipyrrol]-5'-ylidene)methyl)-4-(trifluoromethoxy)aniline Hydrochloride]
16 | > 60.0 min | > 60.0 min | Cl.FC(F)(F)Oc1ccc(OC2=CC(c3ccc[nH]3)=N/C2=C\NC23CC4CC(CC(C4)C2)C3)cc1 [compound 70, (3s,5s,7s)-N-((Z)-(4'-(4-(Trifluoromethoxy)phenoxy)-1H,5'H-[2,2'-bipyrrol]-5'-ylidene)methyl)adamantan-1-amine Hydrochloride]
17 | > 60.0 min | > 60.0 min | COC1=CC(c2ccc(Cc3ccc(OC)cc3)[nH]2)=N/C1=C\NC12CC3CC(CC(C3)C1)C2.Cl [compound 123, (3s,5s,7s)-N-((Z)-(4'-Methoxy-5-(4-methoxybenzyl)-1H,5'H-[2,2'-bipyrrol]-5'-ylidene)methyl)adamantan-1-amine Hydrochloride]
18 | > 60.0 min | 19.1 min | COC1=CC(c2ccc[nH]2)=N/C1=C\Nc1ccc(F)c(OC)c1.Cl [compound 62, (Z)-4-Fluoro-3-methoxy-N-((4'-methoxy-1H,5'H-[2,2'-bipyrrol]-5'-ylidene)methyl)aniline Hydrochloride]
19 | 18.6 min | 12.3 min | COC1=CC(c2ccc[nH]2)=N/C1=C\NCC1CCCCCC1.Cl [compound 46, (Z)-1-Cycloheptyl-N-((4'-methoxy-1H,5'H-[2,2'-bipyrrol]-5'-ylidene)methyl)-methanamine Hydrochloride]
20 | > 60.0 min | 17.6 min | CC1=C/C(=C\NC23CC4CC(CC(C4)C2)C3)N=C1c1ccc[nH]1.Cl [compound 88]
21 | 52.1 min | 8.20 min | COC1=CC(c2ccc[nH]2)=N/C1=C\NC1CCCCCC1.Cl [compound 45]
22 | > 60.0 min | 42.0 min | COC1=CC(c2ccc[nH]2)=N/C1=C\Nc1cccc(Cl)c1.Cl [compound 57, (Z)-3-Chloro-N-((4'-methoxy-1H,5'H-[2,2'-bipyrrol]-5'-ylidene)methyl)aniline Hydrochloride]
23 | > 60.0 min | 7.98 min | CCc1ccc(C2=N/C(=C\NC3CCCCCC3)C(OC)=C2)[nH]1.Cl [compound 117, (Z)-N-((5-Ethyl-4'-methoxy-1H,5'H-[2,2'-bipyrrol]-5'-ylidene)methyl)cycloheptanamine Hydrochloride]
24 | > 60.0 min | > 60.0 min | COC1=CC(c2ccc[nH]2)=N/C1=C\Nc1ccc(Cl)c(OC)c1.Cl [compound 61, (Z)-4-Chloro-3-methoxy-N-((4'-methoxy-1H,5'H-[2,2'-bipyrrol]-5'-ylidene)methyl)aniline Hydrochloride]
25 | > 60.0 min | > 60.0 min | Cl.FC(F)(F)Oc1ccc(C2=CC(c3ccc[nH]3)=N/C2=C\NC23CC4CC(CC(C4)C2)C3)cc1 [compound 80, (3s,5s,7s)-N-((Z)-(4'-(4-(Trifluoromethoxy)phenyl)-1H,5'H-[2,2'-bipyrrol]-5'-ylidene)methyl)adamantan-1-amine Hydrochloride]
26 | > 60.0 min | > 60.0 min | COC1=CC(c2ccc(-c3ccc(OC)cc3)[nH]2)=N/C1=C\NC1CCCCCC1.Cl [compound 118, (Z)-N-((4'-Methoxy-5-(4-methoxyphenyl)-1H,5'H-[2,2'-bipyrrol]-5'-ylidene)methyl)cycloheptanamine Hydrochloride]
27 | > 60.0 min | > 60.0 min | CCc1ccc(C2=N/C(=C\NC3CCCCCCC3)C(C)=C2C)[nH]1.Cl [compound 112, (Z)-N-((5-Ethyl-3',4'-dimethyl-1H,5'H-[2,2'-bipyrrol]-5'-ylidene)methyl)cyclooctanamine Hydrochloride]

Row | Compound | metabolic stability (t1/2, min) vs HLM [1] | metabolic stability (t1/2, min) vs MLM [2]
28 | CCc1c[nH]c(C2=N/C(=C\NC3CCCCCC3)C(C)=C2C)c1.Cl [compound 113, (Z)-N-((4-Ethyl-3',4'-dimethyl-1H,5'H-[2,2'-bipyrrol]-5'-ylidene)methyl)cycloheptanamine Hydrochloride] | > 60.0 min | –
29 | COC1=CC(c2ccc[nH]2)=N/C1=C\N[C@H]1CC[C@H](C)CC1.Cl [compound 47, (1r,4r)-N-((Z)-(4'-Methoxy-1H,5'H-[2,2'-bipyrrol]-5'-ylidene)methyl)-4-methylcyclohexan-1-amine Hydrochloride] | 17.3 min | 11.4 min
30 | CCCCCCN/C=C1\N=C(c2ccc[nH]2)C=C1OC.Cl [compound 42] | 17.1 min | 10.2 min
